Assay results reported in PMC9599613 (Biomolecules, 2022).

Tests used:
[1] = DPPH free radical scavenging assay
Method: The antioxidant potentials of isolated compounds (phytosteroids 1 and 2) were determined following the DPPH standard assay. Initially, DPPH (24 mg) was dissolved in methanol (100 mL). Stock solutions of the test compounds were prepared in different dilutions (62.50–1000 μg/mL). From each dilution, 1 mL was mixed with 1 mL of the DPPH solution. The solution mixtures were incubated at room temperature for 0.5 h. Afterward, absorbance was recorded at 517 nm with a UV-visible spectrophotometer. Ascorbic acid was the standard drug, whereas the DPPH solution without the compound was negative control. The percent radical scavenging potential of the test compounds was calculated using the following formula: % DPPH activity=X−X1/X×100 where X = absorbance of the control, and X1 = absorbance of the test compound.

[2] = molecular target: T1, butyrylcholinesterase (BChE) (Equus caballus, UniProt P81908); test: Anticholinesterase assay (Ellman's), BChE inhibition; format: biochemical, equine
T1 construct: butyrylcholinesterase (BChE, obtained from equine serum); from tissue; host or cells: equine serum
Method: This enzyme method relied on the hydrolytic of acetyl cholinethioiodide (ATChI) by acetylcholinesterase and butyrylthiocholine iodide (BTchI) by butyrylcholinesterase. As a result of this breakdown, 5-thio-2-nitrobenoate anions formed. […] The absorption was measured with a spectrophotometer, as per the protocols. […] An amount of 0.1 M phosphate buffer (8.0 ± 0.1 pH) solution was prepared, whose final pH was adjusted by using the KOH solution.
In this assay, 50 µL enzyme solution and 50 µL DTNB reagent were added to 1 mL test samples in a cuvette and then incubated at 30 °C for 15 min. Afterward, a 50 µL substrate solution was added to the mixture.

COX-1 = COX-1 (Homo sapiens, UniProt P23219); test: biochemical; conditions: read-out: % COX-1 Inhibition
Method: The Cyclooxygenase enzymes (COX-1 and 2) inhibitory potential of our test compounds was determined according to the previously reported procedure. […] The enzyme solutions with a concentration of 0.7–0.8 μg/10 μL (COX-1) and 300 U/mL (COX-2) were prepared. To start the assay, for enzyme activation, 10 µL enzyme solution (kept in a cool temperature of 4 °C for 5 min) and cofactor containing hematin (50 µL, 1 mM), glutathione (0.9 mM) and TMPD in a Tris-buffer (0.1 M) with a pH 8.0 was added. After that, 60 µL of the enzyme solution was added to 20 µL of the test samples of various concentrations and incubated at room temperature for 5 to 10 min. Then, 20 µL of arachidonic acid (30 mM) was added to start the reaction. The mixture was then again incubated for 15 min at 37 °C, and absorbances were measured at 570 nm with UV-visible spectrophotometer. […] The % enzyme inhibitions were calculated by using the previously reported formula.

T1 sequence (P81908 whole entry): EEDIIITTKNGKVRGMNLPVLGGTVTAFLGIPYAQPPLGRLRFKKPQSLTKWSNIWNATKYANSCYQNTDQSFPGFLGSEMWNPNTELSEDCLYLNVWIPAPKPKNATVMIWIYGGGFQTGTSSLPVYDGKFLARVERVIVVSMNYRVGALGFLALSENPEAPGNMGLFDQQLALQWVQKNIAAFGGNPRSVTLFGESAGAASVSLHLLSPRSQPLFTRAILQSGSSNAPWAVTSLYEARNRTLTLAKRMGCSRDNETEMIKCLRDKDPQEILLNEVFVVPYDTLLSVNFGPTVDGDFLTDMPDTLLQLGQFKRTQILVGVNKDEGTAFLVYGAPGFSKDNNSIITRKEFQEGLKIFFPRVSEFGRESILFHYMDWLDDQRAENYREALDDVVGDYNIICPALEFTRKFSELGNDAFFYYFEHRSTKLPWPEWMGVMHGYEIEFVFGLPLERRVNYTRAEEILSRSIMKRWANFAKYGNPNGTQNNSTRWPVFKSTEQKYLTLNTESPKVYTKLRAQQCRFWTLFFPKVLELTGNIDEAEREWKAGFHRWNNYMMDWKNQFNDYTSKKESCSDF
Chain of COX-1 (P23219 24-599): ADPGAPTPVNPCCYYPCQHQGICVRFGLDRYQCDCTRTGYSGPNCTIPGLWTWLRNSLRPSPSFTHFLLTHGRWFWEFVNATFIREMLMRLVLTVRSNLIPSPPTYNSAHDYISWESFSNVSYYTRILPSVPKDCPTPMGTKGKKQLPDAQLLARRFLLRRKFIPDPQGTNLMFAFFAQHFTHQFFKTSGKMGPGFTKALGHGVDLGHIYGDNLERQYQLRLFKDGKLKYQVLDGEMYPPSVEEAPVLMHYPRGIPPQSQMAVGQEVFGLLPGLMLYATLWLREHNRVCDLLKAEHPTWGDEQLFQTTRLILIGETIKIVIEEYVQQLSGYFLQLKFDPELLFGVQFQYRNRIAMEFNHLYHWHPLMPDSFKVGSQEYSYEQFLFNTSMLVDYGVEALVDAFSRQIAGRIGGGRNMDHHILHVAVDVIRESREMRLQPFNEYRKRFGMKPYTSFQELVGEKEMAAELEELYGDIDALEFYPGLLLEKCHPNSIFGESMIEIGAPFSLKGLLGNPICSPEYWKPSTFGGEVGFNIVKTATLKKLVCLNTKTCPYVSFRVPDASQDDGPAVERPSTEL

CCC(CCC(C)C1CCC2C3CCC4=CC(=O)CCC4(C)C3CCC12C)C(C)C (stereo not drawn) [Compound 2, 17-(5-ethyl-6-methylheptan-2-yl)-10,13-dimethyl-1,2,6,7,8,9,10,11,12,13,14,15,16,17-tetradecahydro-3H-cyclopenta[a]phenanthren-3-one]
DPPH IC50 [1]: 218.83 µg/mL
Percent DPPH Activity (mean ± SEM) ([1]; 62.5 μg/mL): 33.00 ± 1.15 %
Percent DPPH Activity (mean ± SEM) ([1]; 125 μg/mL): 42.67 ± 0.89 %
Percent DPPH Activity (mean ± SEM) ([1]; 250 μg/mL): 49.00 ± 0.58 %
Percent DPPH Activity (mean ± SEM) ([1]; 500 μg/mL): 63.03 ± 0.23 %
Percent DPPH Activity (mean ± SEM) ([1]; 1000 μg/mL): 71.33 ± 0.49 %
Percent DPPH Activity (mean ± SEM) ([1]; 1000 μg/mL, listed as compound 2): 71.33 ± 0.49%
IC50 [2]: 25.8 µM
Percent BChE (mean ± SEM) ([2]; 62.5 μg/mL): 61.35 ± 0.18 %
Percent BChE (mean ± SEM) ([2]; 125 μg/mL): 66.20 ± 0.15 %
Percent BChE (mean ± SEM) ([2]; 250 μg/mL): 73.42 ± 0.11 %
Percent BChE (mean ± SEM) ([2]; 500 μg/mL): 78.62 ± 0.17 %
Percent BChE (mean ± SEM) ([2]; 1000 μg/mL): 83.53 ± 0.20 %
inhibition at 62.5 µg/mL (COX-1): 32.5 ± 0.65%
inhibition at 125 µg/mL (COX-1): 37.7 ± 0.45%
inhibition at 250 µg/mL (COX-1): 44.86 ± 0.02%
inhibition at 500 µg/mL (COX-1): 51.67 ± 0.11%
inhibition at 1000 µg/mL (COX-1): 57.6 ± 1.18%
